According to the supplement of paper PMC10307832:

Tests used:
Experiment in all cases: relative viability (nuclei count vs DMSO), 5 days (fraction); higher = more cells survive
BEN = test system: BEN
Procedure, shortened: (§1)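 Cells from lung cancer lines were seeded into 1536-well plates and, one day later, dosed by pin tool. Treatments were either a single drug or a fixed dose of an anchor drug with five library-drug doses (not always all listed) in √10 steps. After 5 days, nuclei were stained in a one-step fixation (final 0.05% Triton X-100, 1% formaldehyde, 1 ug/ml Hoechst) and counted on 4× images, and relative viability is the treated-to-vehicle nuclei ratio, as the median of duplicate plates.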

ChaGo-K-1 = test system: ChaGo-K-1
Procedure, shortened: as §1

EKVX = test system: EKVX
Procedure, shortened: as §1

HCC-827 = test system: HCC-827
Procedure, shortened: as §1

HOP-62 = test system: HOP-62
Procedure, shortened: as §1

LCLC-103H = test system: LCLC-103H
Procedure, shortened: as §1

LOU-NH91 = test system: LOU-NH91
Procedure, shortened: as §1

LXF-289 = test system: LXF-289
Procedure, shortened: as §1

NCI-H1355 = test system: NCI-H1355
Procedure, shortened: as §1

NCI-H1437 = test system: NCI-H1437
Procedure, shortened: as §1

NCI-H1666 = test system: NCI-H1666
Procedure, shortened: as §1

NCI-H1993 = test system: NCI-H1993
Procedure, shortened: as §1

NCI-H2126 = test system: NCI-H2126
Procedure, shortened: as §1

NCI-H441 = test system: NCI-H441
Procedure, shortened: as §1

NCI-H647 = test system: NCI-H647
Procedure, shortened: as §1

NCI-H661 = test system: NCI-H661
Procedure, shortened: as §1

NCI-H727 = test system: NCI-H727
Procedure, shortened: as §1

PC-14 = test system: PC-14
Procedure, shortened: as §1

RERF-LC-KJ = test system: RERF-LC-KJ
Procedure, shortened: as §1

## Cc1csc(=NC2CCCCC2)n1/N=C/c1ccc(O)c(O)c1O [MIM1] + CC(C)C[C@H](NC(=O)[C@H](Cc1ccccc1)NC(=O)c1cnccn1)B(O)O [Bortezomib] (partner 0.002 µM)
BEN; first compound 0.2 µM
  relative viability: 0.719
BEN; first compound 0.6325 µM
  relative viability: 1.01
BEN; first compound 2 µM
  relative viability: 0.929
BEN; first compound 6.325 µM
  relative viability: 0.735
BEN; first compound 20 µM
  relative viability: 0.183
ChaGo-K-1; first compound 0.2 µM
  relative viability: 1.03
ChaGo-K-1; first compound 0.6325 µM
  relative viability: 0.972
ChaGo-K-1; first compound 2 µM
  relative viability: 1.06
ChaGo-K-1; first compound 6.325 µM
  relative viability: 0.729
ChaGo-K-1; first compound 20 µM
  relative viability: 0.29
EKVX; first compound 0.2 µM
  relative viability: 1.03
EKVX; first compound 0.6325 µM
  relative viability: 1.16
EKVX; first compound 2 µM
  relative viability: 0.991
EKVX; first compound 6.325 µM
  relative viability: 0.601
EKVX; first compound 20 µM
  relative viability: 0.33
HCC-827; first compound 0.2 µM
  relative viability: 1.09
HCC-827; first compound 0.6325 µM
  relative viability: 0.9
HCC-827; first compound 2 µM
  relative viability: 1.07
HCC-827; first compound 6.325 µM
  relative viability: 0.402
HCC-827; first compound 20 µM
  relative viability: 0.465
HOP-62; first compound 0.2 µM
  relative viability: 1.04
HOP-62; first compound 0.6325 µM
  relative viability: 0.611
HOP-62; first compound 2 µM
  relative viability: 0.746
HOP-62; first compound 6.325 µM
  relative viability: 0.494
HOP-62; first compound 20 µM
  relative viability: 0.116
LCLC-103H; first compound 0.2 µM
  relative viability: 0.974
LCLC-103H; first compound 0.6325 µM
  relative viability: 0.959
LCLC-103H; first compound 2 µM
  relative viability: 1.05
LCLC-103H; first compound 6.325 µM
  relative viability: 0.955
LCLC-103H; first compound 20 µM
  relative viability: 0.938
LOU-NH91; first compound 0.2 µM
  relative viability: 0.462
LOU-NH91; first compound 0.6325 µM
  relative viability: 0.53
LOU-NH91; first compound 2 µM
  relative viability: 0.447
LOU-NH91; first compound 6.325 µM
  relative viability: 0.35
LOU-NH91; first compound 20 µM
  relative viability: 0.267
LXF-289; first compound 0.2 µM
  relative viability: 0.986
LXF-289; first compound 0.6325 µM
  relative viability: 0.791
LXF-289; first compound 2 µM
  relative viability: 1.03
LXF-289; first compound 6.325 µM
  relative viability: 0.826
LXF-289; first compound 20 µM
  relative viability: 0.634
NCI-H1355; first compound 0.2 µM
  relative viability: 1.26
NCI-H1355; first compound 0.6325 µM
  relative viability: 0.978
NCI-H1355; first compound 2 µM
  relative viability: 1.22
NCI-H1355; first compound 6.325 µM
  relative viability: 0.871
NCI-H1355; first compound 20 µM
  relative viability: 0.916
NCI-H1437; first compound 0.2 µM
  relative viability: 0.441
NCI-H1437; first compound 0.6325 µM
  relative viability: 0.427
NCI-H1437; first compound 2 µM
  relative viability: 0.536
NCI-H1437; first compound 6.325 µM
  relative viability: 0.221
NCI-H1437; first compound 20 µM
  relative viability: 0.112
NCI-H1666; first compound 0.2 µM
  relative viability: 0.863
NCI-H1666; first compound 0.6325 µM
  relative viability: 0.916
NCI-H1666; first compound 2 µM
  relative viability: 0.722
NCI-H1666; first compound 6.325 µM
  relative viability: 0.568
NCI-H1666; first compound 20 µM
  relative viability: 0.249
NCI-H1993; first compound 0.2 µM
  relative viability: 1.18
NCI-H1993; first compound 0.6325 µM
  relative viability: 1.03
NCI-H1993; first compound 2 µM
  relative viability: 1.11
NCI-H1993; first compound 6.325 µM
  relative viability: 0.774
NCI-H1993; first compound 20 µM
  relative viability: 0.473
NCI-H2126; first compound 0.2 µM
  relative viability: 1.13
NCI-H2126; first compound 0.6325 µM
  relative viability: 1.1
NCI-H2126; first compound 2 µM
  relative viability: 1.13
NCI-H2126; first compound 6.325 µM
  relative viability: 1.03
NCI-H2126; first compound 20 µM
  relative viability: 1
NCI-H441; first compound 0.2 µM
  relative viability: 0.593
NCI-H441; first compound 0.6325 µM
  relative viability: 0.418
NCI-H441; first compound 2 µM
  relative viability: 0.681
NCI-H441; first compound 6.325 µM
  relative viability: 0.521
NCI-H441; first compound 20 µM
  relative viability: 0.171
NCI-H647; first compound 0.2 µM
  relative viability: 1.05
NCI-H647; first compound 0.6325 µM
  relative viability: 0.878
NCI-H647; first compound 2 µM
  relative viability: 0.98
NCI-H647; first compound 6.325 µM
  relative viability: 0.769
NCI-H647; first compound 20 µM
  relative viability: 0.237
NCI-H661; first compound 0.2 µM
  relative viability: 0.843
NCI-H661; first compound 0.6325 µM
  relative viability: 0.861
NCI-H661; first compound 2 µM
  relative viability: 0.648
NCI-H661; first compound 6.325 µM
  relative viability: 0.453
NCI-H661; first compound 20 µM
  relative viability: 0.221
NCI-H727; first compound 0.2 µM
  relative viability: 0.671
NCI-H727; first compound 0.6325 µM
  relative viability: 0.785
NCI-H727; first compound 2 µM
  relative viability: 0.705
NCI-H727; first compound 6.325 µM
  relative viability: 0.602
NCI-H727; first compound 20 µM
  relative viability: 0.286
PC-14; first compound 0.2 µM
  relative viability: 0.751
PC-14; first compound 0.6325 µM
  relative viability: 0.882
PC-14; first compound 2 µM
  relative viability: 0.779
PC-14; first compound 6.325 µM
  relative viability: 0.692
PC-14; first compound 20 µM
  relative viability: 0.192
RERF-LC-KJ; first compound 0.2 µM
  relative viability: 1.08
RERF-LC-KJ; first compound 0.6325 µM
  relative viability: 1.29
RERF-LC-KJ; first compound 2 µM
  relative viability: 0.852
RERF-LC-KJ; first compound 6.325 µM
  relative viability: 0.601
RERF-LC-KJ; first compound 20 µM
  relative viability: 0.264
